Results from patent US20250228858A1, “ANTI-CANCER COMBINATION THERAPY” (Boehringer Ingelheim International GmbH, priority 2023, published 2025).
*1 amine or outer side, *2 acyl side, *3 side chain or, on linkers, in order; H or OH if unused. Where a SMILES comes first, the peptide text is derived from it. [ ]: non-standard residue; d: D form. The star is where a group is joined. Exatecan = CC[C@@]1(O)C(=O)OCc2c1cc1n(c2=O)Cc2c-1nc1cc(F)c(C)c3c1c2[C@@H](N*)CC3; Hexanoyl(6-maleimido) = O=C1C=CC(=O)N1CCCCCC(=O)*; NHCH2OCH2CO = O=C(COCN[*:1])[*:2]

What was measured:
[1] = system: HER2-overexpressing human breast cancer cell line SUM190PT; assay type: in vivo
Experimental: The study is performed in human breast cancer cell line SUM190PT grown as subcutaneous xenografts in NMRI-Foxn1^nu mice. Day 1 was the first day, day 21 the last day of treatment and final day of analysis.
Cells are obtained and cultured as described in Example 8 (see paragraph 8.1.2).
Capecitabine can be purchased from Roche Pharma AG. Capecitabine is suspended with 0.5% Natrosol and administered intragastrally with a volume of 10 ml/kg.
Tumor volumes and side effects are monitored as described in Example 1 (see paragraph 1.1.6), except that control animals are sacrificed when the median tumor volume of the group reaches a size of approximately 540 mm^3.
(§1) The statistical evaluation of the tumor volume and the body weight is conducted on day 21 (last day of the study). Apart from this, statistical analysis was performed as described in Example 1 (see paragraph 1.1.7), with no evaluation of tumor growth after stop of treatment.

parental NCI-N87 cells = test: Proliferation assay (CellTiter Glo), parental NCI-N87 cells; assay type: cell-based, human; details: 5 days of incubation, in vitro
Experimental: (§2) Per well, 1000 cells are seeded in 40 μL medium in white, sterile 384-well culture plates (TC-treated; PerkinElmer #6007680) and incubated overnight in a humidified incubator at 37° C. and 5% CO2. 0.1% DMSO-control or serial compound dilution in triplicates are added. […] After 5 days of incubation with test compounds, the cells plates are measured upon addition of CellTiter Glo Luminescent Cell Viability Reagent (Promega, #G9243) to assess cell viability. The plates are placed on a shaker for five minutes and additionally incubated for 10 minutes at room temperature to induce cell lysis and to stabilize the luminescent signal. The luminescent signal of each well is measured in an EnSpire Multilabel Plate Reader 658 (PerkinElmer). The dose response curves are fit and visualized using Boehringer Ingelheim's proprietary software MegaLab and PRISM (GraphPad Inc.).

[2] = system: T-DXd-resistant NCI-N87 cells; test: Proliferation assay (CellTiter Glo), T-DXd resistant NCI-N87 cells; assay type: cell-based, human; details: 5 days of incubation, in vitro
Experimental: as §2

[3] = system: HER2-overexpressing human NSCLC cell line Calu-3; test: Calu-3 subcutaneous xenograft, zongertinib with trastuzumab and/or pertuzumab; assay type: in vivo, CB-17/Icr-Prkdc^scid mice; details: day 42, zongertinib 20 mg/kg qdx42 p.o., trastuzumab 20 mg/kg q7dx6 i.p., pertuzumab 20 mg/kg q7dx6 i.p., alone or combined
Experimental: The study is performed in human NSCLC cell line Calu-3 grown as subcutaneous xenografts in CB-17/Icr-Prkdc^scid mice. Day 1 was the first day, day 42 the last day of treatment and final day of analysis.
Calu-3 is a HER2-overexpressing human NSCLC cell line that can be obtained from ATCC (lot 614492062). Cells are cultured in T75, T175 and 5-Layer tissue culture flasks at 37° C. and 5% CO2. The medium used is EMEM (Lonza BE12-662F) supplemented with 10% FCS (Cytiva HyClone Characterized FBS, SH30084.03n), 2 mM Glutamax (Gibco 35050-038), 0.5 mM sodium pyruvate (Sigma S8636). Cultures are split once weekly with a ratio of 1:1.5-1:2.
To establish subcutaneous tumors, Calu-3 cells are harvested by centrifugation, washed and resuspended in PBS+5% FCS at 7×10^7 cells/ml. 50 μl cell suspension containing 3.5×10^6 cells is injected subcutaneously into the right flank of mice (1 site per mouse).
Mice in the control group are treated with vehicle, i.e.: • (i) 0.5% Natrosol, administered once daily for the duration of the treatment intragastrally by gavage needle with a volume of 10 ml/kg body weight; and • (ii) saline (0.9%), administered once every week intraperitoneally with a volume of 10 ml/kg.
Tumor volumes and side effects are monitored as described in Example 1 (see paragraph 1.1.6).
as §1

CCCCCOC(=O)Nc1nc(=O)n([C@@H]2O[C@H](C)[C@@H](O)[C@H]2O)cc1F [Capecitabine, capecitabine, reference compound]
Regressions >30% ([1]; day 21, tumors regressed/total (partial response), zongertinib 10 mg/kg qdx21 p.o., capecitabine 400 mg/kg qdx21 p.o., trastuzumab 20 mg/kg q7dx3 i.p., alone or combined): 0/8 | TGI ([1]; day 21, zongertinib 10 mg/kg qdx21 p.o., capecitabine 400 mg/kg qdx21 p.o., trastuzumab 20 mg/kg q7dx3 i.p., alone or combined): 106% | effect on tumor growth (median tumor volumes over time) ([1]; zongertinib 10 mg/kg qdx21, capecitabine 400 mg/kg qdx21, trastuzumab 20 mg/kg q7dx3, alone or triple combination): delayed tumor growth but did not shrink tumors

CC[C@@]1(O)C(=O)OCc2c1cc1n(c2=O)Cc2c-1nc1cc(F)c(C)c3c1c2[C@@H](NC(=O)COCNC(=O)CNC(=O)[C@H](Cc1ccccc1)NC(=O)CNC(=O)CNC(=O)CCCCCN1C(=O)C=CC1=O)CC3 [deruxtecan, reference compound] ({Hexanoyl(6-maleimido)}-GGFG[NHCH2OCH2CO]-Exatecan)
sensitivity (dose response, cell viability) (parental NCI-N87 cells): sensitive | sensitivity (dose response, cell viability) [2]: resistant

pertuzumab [reference compound]
Regressions >30% ([3]; tumors regressed/total (partial response)): 0/10 | TGI [3]: 89%
